Measurements from patent publication US9931313B2, “Methods of treating proliferative disorders with malate or derivatives thereof” (Beth Israel Deaconess Medical Center, Inc., priority 2012, dated 2018).

Columns and labels:
ME2-C = biological target: T1, ME2-C (Homo sapiens, UniProt P23368); experiment: In vitro activity of modified ME2 (ME2-C), absorbance at 340 nm; format: biochemical; conditions: 5, 15 and 45 mM DMM; 15 mM L-malate, 1 mM NAD+, 60 nM ME2-C, 37° C.
T1 construct: His tag (C); FLAG tag (cleavable) (C); made in house; host or cells: E. coli BL21(DE3)
T1 sequence (P23368 19-584): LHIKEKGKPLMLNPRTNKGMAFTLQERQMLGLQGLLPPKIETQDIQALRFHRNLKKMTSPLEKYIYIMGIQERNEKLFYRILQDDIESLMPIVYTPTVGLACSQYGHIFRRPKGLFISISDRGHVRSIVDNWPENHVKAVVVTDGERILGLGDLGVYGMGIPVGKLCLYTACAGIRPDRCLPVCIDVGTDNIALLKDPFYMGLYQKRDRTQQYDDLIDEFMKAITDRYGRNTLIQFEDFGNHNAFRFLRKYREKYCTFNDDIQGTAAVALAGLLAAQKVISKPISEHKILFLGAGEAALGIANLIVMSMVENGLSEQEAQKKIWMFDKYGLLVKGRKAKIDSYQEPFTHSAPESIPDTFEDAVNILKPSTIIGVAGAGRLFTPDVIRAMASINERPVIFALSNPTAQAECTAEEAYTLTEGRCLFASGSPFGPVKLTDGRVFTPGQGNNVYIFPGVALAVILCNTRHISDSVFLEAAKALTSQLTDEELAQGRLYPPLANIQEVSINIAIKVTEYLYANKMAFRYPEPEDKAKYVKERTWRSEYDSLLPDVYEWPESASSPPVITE
Procedure: Modified ME2 is a recombinant ME2 protein having a C-terminus His tag and lacking the mitochondrial targeting sequence (ME2-C) was prepared, as described in Loeber et al., J. Biol. Chem. 266:3016-3021 (1991). The 200 μl assay mixture contained 30 mM of Tris-HCl (pH 7.4), 15 mM of L-malate (pH 7.4), 1 mM of NAD^+, 2 mM of MnCl2, and 60 nM of ME2-C. Different concentrations of DMM (pH 7.4) were tested, namely 5, 15 and 45 mM. The absorbance of the solution at 340 nm was monitored continuously with a Beckman Coulter DTX 880 multimode spectrophotometer at 37° C.
To further determine compounds that can be used to inhibit ME2 and/or increase intracellular malate, or a derivative thereof, an ME2 assay was established. Accordingly, a modified ME2 protein was constructed using a human ME2 expression vector and a bacterial expression system (E. coli BL21(DE3)) with a cleavable FLAG tag. Both N- and C-terminal constructs were assessed for protein production, and the mitochondrial targeting sequence was deleted in the constructs, as described in Loeber et al., J. Biol. Chem. 266:3016-3021 (1991), which is incorporated herein by reference. Kinetic experiments were performed with C-terminal tagged ME2 (ME2-C) and with an assay mixture containing 30 mM of Tris-HCl (pH 7.4), 15 mM of L-malate (pH 7.4), 1 mM of NAD+, 2 mM of MnCl2, and 60 nM of ME2-C. […]

A549 cells [1] = experiment: Proliferation assay of A549 cells treated with DMM; format: cell-based, human
Procedure: Control and ME2 deficient cell lines were plated in 6-well plate at a density of 1×10^5 cells/well and maintained at 37° C. in a 5% CO2 incubator. After 24, 72, 120 and 168 hours of initial plating, 0.5 ml cells were diluted into 10 ml of Hanks' buffer and counted by Coulter counter. All samples were assayed in triplicate to generate proliferation curves, as described in Benson et al., Nature 441: 451-456 (2006). For the clonogenic assay, A549 with stably expression ME2 knockdown and control shRNA cells were seeded in a 6-well plate at a density of 200 cells per well. Colonies were fixed with 10% formaldehyde for 5 min and stained with 0.5% crystal violet for 30 min and counted with NIH image software.
To test whether malate accumulation may damage mitochondrial function and further inhibit cell growth, an exogenous form of malate was delivered in vitro. Exogenous malate may mimic the phenotype-induced by ME2 knockdown. Therefore, we supplemented exogenous cell-permeable malate (Heart et al., Am. J. Physiol. 296: E1354-1362 (2009)) in A549 cell growth media and compared the phenotype with ME2 knockdown cells. DMM, being cell permeable, was used as an exogenous substitute for malate.

A549 cells [2] = experiment: Mitochondrial superoxide by MitoSOX Red in A549 cells; format: cell-based, human
Procedure: (§1) Intracellular ROS production was measured by staining with CM-H2DCFDA. CM-H2DCFDA is a cell-permeant indicator for ROS that is nonfluorescent until removal of the acetate groups by intracellular esterases and oxidation occurs within the cell. The procedure for measuring ROS was carried out as described in Trachootham et al., in Cancer Cell. 10: 241-252 (2006), with minor modifications. Briefly, A549 cells transduced with shRNA lentiviral particles or control vector were selected with puromycin for 2 weeks, and then incubated with 5 μM CM-H2DCF-DA for 3 hours, followed by flow cytometry using a FACSCalibur equipped with CellQuest Pro software. Superoxide radicals (O2^−) were measured separately using the MitoSOX™ reagent according to the manufacturer's protocol (Invitrogen). In brief, cells with or without ME2 knockdown were incubated with 5 μM MitoSOX™ reagent for 10 minutes at 37° C., then washed three times and observed under a fluorescence microscope using the Rhodamine filter and Axiovision software for capturing images (Zeiss, Germany).
We measured the ROS source using MitoSOX™ Red, a reagent that selectively targeted to the mitochondria.

A549 xenograft tumors = experiment: A549 xenograft in nude mice treated with DMM, cisplatin or both; format: in vivo, athymic nude mice
Procedure: Approximately 5×10^6 control pLKO cells were subcutaneously implanted into female athymic nude mice. Mice were treated with DMM, cisplatin (CP), a combination of cisplatin with DMM (CP+DMM), or control (PBS), as described herein. Tumor size was measured and calculated. B: Direct injection of DMM into xenograft tumors caused shrinkage and ulceration of tumors, as compared to control with PBS.
Animal experiments were performed under federal guidelines and approved by the Institutional Animal Care and Use Committee (IACUC) of the Beth Israel Deaconess Medical Center (Approval number 0342007). A549 xenografts in nude mice were generated by following the description of Verrax et al., in Biochem. Pharmacol. 72: 671-680 (2006). Briefly, approximately 10^7 ME2 deficient or control A549 cells resuspended in 200 μl of a serum-free culture medium/Matrigel mixture (1:1) were subcutaneously injected into the right and left flanks of male nude/nu/nu athymic mice, respectively. Tumor-bearing mice were sacrificed after 6-8 weeks and tumor masses were measured or imaged before excision. Tumor lysates were prepared by homogenization of tumor tissues in RIPA lysis buffer and were resolved by SDS-PAGE and transferred onto PDVF membranes and immunoblotted with anti-ME2 antibody and normalized by β-tubulin as a loading control.

[3] = system: normal human derived fibroblast (NHDF) and normal lung epithelial cells; experiment: ROS by CM-H2DCFDA in normal cells; format: cell-based; conditions: 5, 10, 20 mM DMM
Procedure: (§2) A: Treatment with DMM induced ROS production in both normal human derived fibroblast (NHDF) and normal lung epithelial cells (Normal lung). ROS was detected by flow cytometry using indicator CM-H2DCFDA. Data are provided for the following curves (from left to right): 0, 5 mM, 10 mM, or 20 mM DMM. […] Cell death was analyzed by Annexin V reagent. Each histogram is representative of three experiments
as §1, with “Briefly, A549 cells transduced with shRNA lentiviral particles or control vector were selected with puromycin for 2 weeks, and then incubated with 5 μM CM-H2DCF-DA for 3 hours, followed by flow cytometry using a FACSCalibur equipped with CellQuest Pro software.” left out

Akt and PDK1 = experiment: Western blotting of Akt/PDK1 phosphorylation and differentiation marker in A549 cells; format: cell-based, human; conditions: for DMM-induced differentiation / basal Akt activity in DMM-treated A549 cells: DMM in combination with NAC or GSH; for basal Akt activity in DMM-treated A549 cells: p-AKT473
Procedure: A549 cells with and without ME2 knockdown were lysed with RIPA buffer (50 mM Tris-HCl, pH 7.4, 150 mM NaCl, 1% NP-40, 0.1% SDS and 0.5% sodium deoxycholate), and equal amount of proteins were resolved by 4%-12% Bis-Tris gels (Invitrogen), as previously described in Ren et al., Proc. Natl Acad. Sci. USA 104: 10465-10469 (2007). Briefly, the proteins were transferred to a PVDF membrane, and membranes were blocked with BLOTTO (5% nonfat dry milk and 0.1% Tween 20 in PBS), and incubated with antisera generated against ME2, phospho-AKT380, phosphor-473, AKT1/2, phosphor-ERK1/2, ERK1, vimentin, GATA-1 or β-tubulin antibodies, respectively. Membranes were washed in PBS plus 0.1% Tween 20 and probed with anti-rabbit or anti-mouse HRP-conjugated secondary antibody (both at 1:10,000 dilution), and proteins were detected using the ECL Plus chemiluminescence detection reagent (Amersham Biosciences).

[4] = system: normal human derived fibroblast (NHDF) and normal lung epithelial cells; experiment: Cell death by Annexin V in normal cells; format: cell-based
Procedure: as §2
(§3) Apoptosis was measured by staining with the Nexin reagent using a Nexin kit and counting on the Guava PCA-96 system (Guava Technologies) as per the manufacture's protocol. Briefly, cells were harvested and re-suspended in 100 μl of 1× Nexin buffer, and then mixed with 100 μl of Annexin-V-PE, and Nexin 7-AAD. The cells were allowed to incubate for 20 minutes at room temperature and analyzed in the Guava flow cytometer.

A549 cells [5] = experiment: Cellular ROS by CM-H2DCFDA flow cytometry in A549 cells; format: cell-based, human; conditions: for DMM-induced ROS production: 10 or 20 mM DMM with 20 mM NAC or 20 mM GSH
Procedure: as §1

A549 cells [6] = experiment: Annexin-V apoptosis / cell death assay in A549 cells; format: cell-based, human; conditions: for DMM-induced cell death: DMM with NAC or GSH
Procedure: as §3

A549 cells [7] = experiment: Survival of A549 cells in Hams/F12 medium without glucose, pyruvate and glutamine; format: cell-based, human; conditions: control and ME2 knockdown A549 cells, medium without pyruvate, glutamine
Procedure: A549 control or ME2 knockdown cells were grown in Hams/F12 based medium without glucose, pyruvate and glutamine. Different concentrations of glutamine were supplemented as indicated. The alive cells were stained with Nexin/7-ADD and analyzed by FACS. B: Exogenous supplementation of pyruvate can rescue ME2 depletion induced cell death. A549 control or ME2 knockdown cells were grown in Hams/F12 based medium without glucose, pyruvate and glutamine. Different concentrations of pyruvate were supplemented as indicated. The alive cells were stained with Nexin/7-ADD and analyzed by FACS. C and D: The effect of ME2 knockdown on de novo synthesis of PC is greater with ^13C6-Glc than with ^13C5, 1^5N2-Gln as tracer, as analyzed by FT-ICR-MS. E: Inhibition of ^13C3-citrate synthesis from ^13C6-Glc by ME2 knockdown, as determined by GC-MS. […] G and H: Effects of ME2 knockdown on the levels and fractional distribution of ^13C isotopologues of malate, as analyzed by GC-MS; rectangles depict ^13C2- (m2) and ^13C3-malate (m3) species as markers of the first turn of the Krebs cycle without and with pyruvate carboxylation input, respectively. […]

[8] = direct intratumoral injection, vs PBS

Question: Which “activity of ME2-C” value (ME2-C) does the source give for `COC(=O)CC(O)C(=O)OC` (centres unmarked) [DMM, dimethyl malate] here?
Answer: decreased the activity

Question: What about the “proliferation of A549 cells” value (A549 cells [1]; 10 and 20 mM DMM, control (pLKO) and ME2 knockdown (shME2-3) A549 cells) of the same compound?
Answer: significantly inhibited

Question: And the “sensitivity of ME2 knockdown cells to DMM treatment compared to control cancer cells” value (A549 cells [1]; shME2-3 vs pLKO A549 cells)?
Answer: more sensitive

Question: What about the “superoxide (MitoSOX Red)” value (A549 cells [2]; 20 mM DMM for four days) of the same compound?
Answer: increased presence of superoxide

Question: What about the “A549 tumor growth in vivo” value (A549 xenograft tumors; 0.5 g/kg of DMM) of the same compound?
Answer: significantly inhibited

Question: And the “tumor size after direct injection into A549 xenograft tumors” value (A549 xenograft tumors; [8])?
Answer: decreases in tumor size

Question: What about the “tumor tissue appearance after direct injection into A549 xenograft tumors” value (A549 xenograft tumors; [8]) of the same compound?
Answer: ulceration of the tumor tissue

Question: What about the “ROS production in normal cell lines” value [3] of the same compound?
Answer: enhanced ROS production

Question: And the E-cadherin expression (Akt and PDK1; A549 cells in vitro)?
Answer: increased

Question: And the “basal Akt and PDK1 activity” value (Akt and PDK1; A549 cells in vitro, p-AKT473 and p-PDK1)?
Answer: inhibited

Question: And the “cell death in normal cell lines” value [4]?
Answer: not in the normal cell lines

Question: And the “time course of DMM-induced ROS production” value (A549 cells [5]; 3 h to 3 days)?
Answer: time-dependent

Question: And the “ROS production (CM-H2DCFDA)” value (A549 cells [5]; A549 cells, exogenous DMM 5, 10, 20 mM)?
Answer: enhanced production of ROS

Question: And the “mode of cell death induced by DMM (annexin V assay)” value (A549 cells [6]; A549 cells)?
Answer: induced necrosis in A549 cells rather than apoptosis

Question: What about the “cell death in A549 cancer cell” value (A549 cells [6]; compared with normal cell lines) of the same compound?
Answer: selectively induced cell death

Question: How did the DMM-induced differentiation (Akt and PDK1) turn out when `N[C@@H](CCC(=O)N[C@@H](CS)C(=O)NCC(=O)O)C(=O)O` [GSH, reduced glutathione] was run?
Answer: reversed the DMM-induced differentiation

Question: And the “basal Akt activity in DMM-treated A549 cells” value (Akt and PDK1)?
Answer: rescued basal Akt activity

Question: And the “DMM-induced ROS production” value (A549 cells [5])?
Answer: inhibited

Question: And the DMM-induced cell death (A549 cells [6])?
Answer: almost completely inhibited

Question: `CC(=O)N[C@@H](CS)C(=O)O` [NAC, N-acetyl-cysteine] was tested. Which “superoxide production in DMM-treated cells” value (A549 cells [2]; DMM together with 20 mM NAC) did it give?
Answer: decreased levels of superoxide production

Question: What about the DMM-induced differentiation (Akt and PDK1) of the same compound?
Answer: reversed the DMM-induced differentiation

Question: What about the “basal Akt activity in DMM-treated A549 cells” value (Akt and PDK1) of the same compound?
Answer: rescued basal Akt activity

Question: What about the “DMM-induced ROS production” value (A549 cells [5]) of the same compound?
Answer: inhibited

Question: And the DMM-induced cell death (A549 cells [6])?
Answer: almost completely inhibited

Question: What about the “cell death induced by ME2 knockdown, rescue by antioxidant” value (A549 cells [6]; ME2 depleted cells) of the same compound?
Answer: failed to rescue

Question: With `NC(=O)CC[C@H](N)C(=O)O` [glutamine] as the compound, how does the “rescue of cell survival by supplementation” value (A549 cells [7]) read?
Answer: rescued control cells more than ME2 knockdown cells
